In patent US20140239525A1, “INHALABLE PHARMACEUTICAL COMPOSITIONS” (BOARD OF REGENTS, UNIVERSITY OF TEXAS SYSTEM, priority 2011, published 2014):
Like-named read-outs stand apart in the source and are kept apart here.

What was measured:
[1] = CoQ10 in lung tissue of mice after 15 min nose-only aerosol dosing; assay type: in vivo
Experimental: (§1) Pulmonary Delivery to Mice: Animals were caged in groups of 4 and maintained on a normal rodent chow diet with free access to water. Prior to dosing, CD-1@ IGS ICR mice (Charles River Laboratories International, Inc., Wilmington, Mass., USA) were individually acclimatized for approximately 10 minutes per day for 3 days into restraint tubes, restricted by an anterior nose insert and a posterior holder. The dosing apparatus was placed inside a fume hood to collect escaping aerosol containing drug. To avoid influence from the airflow provided by the fume hood, an erlenmeyer container was placed at the end of the tubing system as a buffer. The airflow rate was set to 1 L/min to ensure proper drug aerosolization into the nose-only chamber (internal volume: 230 mL; diameter: 3.8 cm; length: 20.3 cm) using an Aeroneb Pro® vibrating-mesh nebulizer (Aerogen, Galway, Ireland). Following preparation, all formulations (saline control, DMPC, DPPC, and DSPC) were dosed for 15 minutes to mice weighing from 23 to 33 g each, at time of dosing. Each single-dose studied group consisted of thirty-six male animals. At each time point (0.5, 1, 3, 8, 24, and 48 hours after the end of the aerosolization event) six animals randomly selected from different dosing events of the same formulation were sacrificed by narcosis with carbon dioxide. As part of the collection process, blood was withdrawn by cardiac puncture, lungs were harvested, and a nasal wash was performed. The samples were extracted for analysis with liquid chromatography coupled with tandem mass spectrometry (LC/MS/MS).
Analysis of CoQ10 Levels in Lung Tissue, Blood Plasma, and Nasal Cavity: For each experiment, CoQ10 levels were determined after liquid extraction using liquid chromatography coupled with tandem mass spectrometry (LC-MS/MS). The methods were validated in the drug concentration range of 0.1 to 600 μg/mL. The general sample preparation protocols for lung tissue, blood plasma, and nasal cavity analysis are described below. […]

[2] = solubilized oral formulations, cited from earlier work
mice = test: Survival and health of mice after aerosol dosing; assay type: in vivo; conditions: 48 hours after the end of the nebulization event
Experimental: as §1, with “As part of the collection process, blood was withdrawn by cardiac puncture, lungs were harvested, and a nasal wash was performed. The samples were extracted for analysis with liquid chromatography coupled with tandem mass spectrometry (LC/MS/MS).” left out

IL-12 = test: Inflammatory response: IL-12 in bronchoalveolar lavage supernatant by ELISA; assay type: in vivo, mice
Experimental: The inflammatory response to the administration of hydrophobic bioactive agents (e.g., as discussed in connection with Example 1-3 above) was measured. Surgery is performed on sacrificed mice to expose the pleural cavity and trachea at the throat. […] An aliquot (about 0.75 mL) of phosphate buffered saline is instilled through the cannula into the lungs and removed to wash the bronchial and alveolar surfaces. This process is repeated for a total of three washes. The phosphate buffered saline containing cells is placed into centrifuge vials and centrifuged at about 3000 rpm (MiniSpin Plus, Eppendorf International, Hamburg, Del.). The supernatant is removed leaving the collected cells in the pellet. The supernatant from the BAL (Bronchoalveolar Lavage) is analyzed by enzyme-linked immunosorbent assay (ELISA) for IL-12 elevation (n=2 per sample tested).

[3] = Particle size distribution by laser diffraction (LD); assay type: physicochemical
Experimental: Laser Diffraction (LD): Bulk CoQ10 powder was dispersed in 20% (v/v) 1,3-propanediol in deionized water for analysis of particle size distribution. This dispersed sample was then added to a small cell apparatus in a Malvern Mastersizer S® instrument (Malvern Instruments, Worcestershire, UK) equipped with a 300 mm lens until 5-10% obscuration was attained. The internal phase and dispersant refractive indexes were 1.45 and 1.33, respectively.
(§2) Particle Size Distribution: Particle size distribution testing of the dispersed formulations was performed with LD using a wet sample dispersion unit stirring at 1,000 rpm coupled to a Malvern Spraytec® (Malvern Instruments, Worcestershire, UK) equipped with a 300 mm lens. The dispersed formulations were added to distilled water (dispersant) until approximately 5% laser obscuration was attained. The internal phase and dispersant refractive indexes were set as 1.45 and 1.33, respectively. A timed measurement was performed for 45 seconds with 1 second sampling periods (a total of 45 measurements). Results are presented as Dv(X) and span, where X is the cumulative percentile of particles under the referred size (e.g. Dv(50) corresponds to the median volume of the particles). Span is a measurement of particle size distribution calculated as [Dv(90)-Dv(10)]/Dv(50)]. A higher span indicates a more polydisperse particle size distribution.
as §2, with “5%” for “5% laser”, “were” for “were set as”, “45 data acquisition periods).” for “45 measurements).”, “is the” for “is a”, “as [Dv(90)−Dv(10)]/Dv(50)].” for “as [Dv(90)-Dv(10)]/Dv(50)].”

[4] = previous studies, same nebulizer
[5] = after ball milling for 18 hours

**Q.** Which results are given for `COC1=C(OC)C(=O)C(C/C=C(\C)CC/C=C(\C)CC/C=C(\C)CC/C=C(\C)CC/C=C(\C)CC/C=C(\C)CC/C=C(\C)CC/C=C(\C)CC/C=C(\C)CCC=C(C)C)=C(C)C1=O` [CoQ10, Coenzyme Q10]?
**A.** time CoQ10 stays in the lungs at relatively high concentrations ([1]; mice, after 15 min aerosol): up to 48 hours; Cmax relative to dispersions of cyclosporine A [1, 4]: ≤ 75 fold; Cmax relative to dispersions of itraconazole [1, 4]: ≤ 165 fold; highest plasma concentration of CoQ10 reported in the literature ([2]; approximate conversion): approximately 9 μg/mL; highest plasma concentration of CoQ10 reported in the literature [2]: 10.7 µmol/L; survival and health signs (mice): all mice were alive and presenting healthy signs; IL-12 levels in BAL supernatant (IL-12; ELISA): not associated with a rise in IL-12 levels; lung inflammation (IL-12; mouse, in vivo): does not cause lung inflammation; Dv(50) [3, 5]: 29.87 μm; span [3, 5]: 2.282; particle size ([3]; bulk CoQ10 powder): 30 μm; Dv(50) ([3]; bulk material): 29.87 μm; span ([3]; bulk material): 2.051
